pIC50: −log10 of the molar value.

The pIC50 is the negative decadic logarithm of the IC50, by convention in mol/L. Read a low pIC50 as a large IC50.

In this experiment the target is ASK1 (Apoptosis Signal-Regulating Kinase 1) (Homo sapiens (Human), UniProt Q99683). The experiment can be described thus: ASK1 (Apoptosis Signal-Regulating Kinase 1) TR-FRET Kinase Assay (Biochemical IC50). Particulars: TR-FRET, biotin-MBP substrate, 20 min pre-incubation, ATP added as 300 μM solution. For orientation: Time-resolved FRET reads energy transfer from a long-lived donor to a nearby acceptor.
ASK1 (Apoptosis Signal-Regulating Kinase 1), sequence (Q99683 649-946): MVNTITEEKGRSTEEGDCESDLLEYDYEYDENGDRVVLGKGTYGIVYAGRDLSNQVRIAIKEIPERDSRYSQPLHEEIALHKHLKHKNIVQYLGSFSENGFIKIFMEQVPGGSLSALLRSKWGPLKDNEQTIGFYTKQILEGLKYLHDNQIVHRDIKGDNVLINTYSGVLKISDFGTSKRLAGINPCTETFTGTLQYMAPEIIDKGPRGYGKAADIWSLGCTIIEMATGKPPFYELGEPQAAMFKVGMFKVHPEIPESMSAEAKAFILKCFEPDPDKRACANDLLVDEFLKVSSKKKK
`CS(=O)(=O)c1cccc(-c2ccnc(C(=O)Nc3cccc(-c4nncn4C4CC4)c3)c2)c1` [Example 77, N-(3-(4-cyclopropyl-4H-1,2,4-triazol-3-yl)phenyl)-4-(3-(methylsulfonyl)phenyl)picolinamide]: the pIC50 is 7.10.

`CC(C)n1cnnc1-c1cccc(NC(=O)c2cc(-n3cnc(C4CC4)c3)ccn2)c1` [Example 184, 4-(4-cyclopropyl-1H-imidazol-1-yl)-N-(3-(4-isopropyl-4H-1,2,4-triazol-3-yl)phenyl)picolinamide] showed a pIC50 of 7.70.

Turning to `CC(C)CSc1ccc(-c2ccnc(C(=O)Nc3cccc(-c4nncn4C4CC4)c3)c2)cn1` [Example 132, N-(3-(4-cyclopropyl-4H-1,2,4-triazol-3-yl)phenyl)-6-(isobutylthio)-3,4′-bipyridine-2′-carboxamide], the pIC50 is 6.82.

Compound `Cn1cnc2cc(-c3ccnc(C(=O)Nc4cccc(-c5nncn5C5CC5)c4)c3)cnc21` [Example 143, N-(3-(4-cyclopropyl-4H-1,2,4-triazol-3-yl)phenyl)-4-(3-methyl-3H-imidazo[4,5-b]pyridin-6-yl)picolinamide] had a negative-log IC50 (pIC50) of 7.82. This pIC50 lies 1.00 log units higher than the previous one.

In turn, `C[C@@H](c1ccccc1)n1cnnc1-c1cccc(NC(=O)c2cccc(-n3cnc(C4CC4)c3)c2)n1` [Example 214, (S)-3-(4-cyclopropyl-1H-imidazol-1-yl)-N-(6-(4-(1-phenylethyl)-4H-1,2,4-triazol-3-yl)pyridin-2-yl)benzamide] gave a pIC50 of 6.80.

Compound `Cc1cc(-c2cccnc2)cc(C(=O)Nc2cccc(-c3nncn3C)c2)n1` [Example 46, 6′-methyl-N-(3-(4-methyl-4H-1,2,4-triazol-3-yl)phenyl)-3,4′-bipyridine-2′-carboxamide] showed a pIC50 of 6.67.

In turn, `O=C(Nc1cccc(-c2nncn2C2CC2)n1)c1cc(F)cc(-n2cnc(C3CC3)c2)c1` [Example 205, 3-(4-cyclopropyl-1H-imidazol-1-yl)-N-(6-(4-cyclopropyl-4H-1,2,4-triazol-3-yl)pyridin-2-yl)-5-fluorobenzamide] had a pIC50 of 8.05.

As to `O=C(Nc1cccc(-c2nncn2C2CC2)c1)c1cc(-n2ccnc2)ccn1` [Example 27, N-(3-(4-cyclopropyl-4H-1,2,4-triazol-3-yl)phenyl)-4-(1H-imidazol-1-yl)picolinamide], the pIC50 was 7.96.

The compound `CCc1ccc(-c2ccnc(C(=O)Nc3ccc(F)c(-c4nncn4C4CC4)c3)c2)cn1` [Example 148, N-(3-(4-cyclopropyl-4H-1,2,4-triazol-3-yl)-4-fluorophenyl)-6-ethyl-3,4′-bipyridine-2′-carboxamide] gave a pIC50 of 7.25.

`O=C(Nc1cccc(-c2nncn2C2CC2)n1)c1cc(-c2ccc(C3CC3)nc2)ccn1` [Example 100, 6-cyclopropyl-N-(6-(4-cyclopropyl-4H-1,2,4-triazol-3-yl)pyridin-2-yl)-3,4′-bipyridine-2′-carboxamide] had a pIC50 of 8.22. This pIC50 is 0.97 log units higher than that of the compound before.

`O=C(Nc1cccc(-c2nncn2C2CC2)c1)c1cc(-c2ccc(C3CC3)nc2)ncn1` [Example 144, N-(3-(4-cyclopropyl-4H-1,2,4-triazol-3-yl)phenyl)-6-(6-cyclopropylpyridin-3-yl)pyrimidine-4-carboxamide] had a pIC50 of 7.85. Compared with the last compound, the pIC50 is 0.37 log units lower.

Regarding `Cn1cnnc1-c1cccc(NC(=O)c2cc(-c3cnc4ccccn34)ccn2)c1` [Example 13, 4-(imidazo[1,2-a]pyridin-3-yl)-N-(3-(4-methyl-4H-1,2,4-triazol-3-yl)phenyl)picolinamide], the pIC50 was 7.36.

`Cc1cn(-c2ccnc(C(=O)Nc3cccc(-c4nncn4C4CC4)n3)c2)cn1` [Example 159, N-(6-(4-cyclopropyl-4H-1,2,4-triazol-3-yl)pyridin-2-yl)-4-(4-methyl-1H-imidazol-1-yl)picolinamide] showed a pIC50 of 8.52.

Take `O=C(Nc1cccc(-c2nncn2C2CC2)c1)c1cc(-c2cnc3cc[nH]c3c2)ccn1` [Example 128, N-(3-(4-cyclopropyl-4H-1,2,4-triazol-3-yl)phenyl)-4-(1H-pyrrolo[3,2-b]pyridin-6-yl)picolinamide]: the pIC50 is 8.22. Against the preceding compound, the pIC50 is 0.30 log units lower.

For `C[C@H](n1cnnc1-c1cccc(NC(=O)c2cc(-c3ccc(C4CC4)nc3)ccn2)c1)C(F)(F)F` [Example 223, (S)-6-cyclopropyl-N-(3-(4-(1,1,1-trifluoropropan-2-yl)-4H-1,2,4-triazol-3-yl)phenyl)-3,4′-bipyridine-2′-carboxamide], the pIC50 was 7.35.

In the case of `O=C(Nc1cc(-c2nncn2C2CC2)ccn1)c1cc(-c2cccnc2)ccn1` [Example 164, N-(4-(4-cyclopropyl-4H-1,2,4-triazol-3-yl)pyridin-2-yl)-3,4′-bipyridine-2′-carboxamide], the pIC50 was 7.74.

Turning to `Cn1cnnc1-c1cccc(NC(=O)c2cc(-c3cccnc3)ccn2)c1` [Example 9, N-(3-(4-methyl-4H-1,2,4-triazol-3-yl)phenyl)-3,4′-bipyridine-2′-carboxamide], the pIC50 was 7.38.

In turn, `C[C@H]1C[C@@H]1n1cnnc1-c1cccc(NC(=O)c2cc(-c3cccnc3)ccn2)c1` [Example 55, N-(3-(4-((1S,2S)-2-methylcyclopropyl)-4H-1,2,4-triazol-3-yl)phenyl)-3,4′-bipyridine-2′-carboxamide] showed a pIC50 of 7.62.

The compound `O=C(Nc1cccc(-c2nncn2C2CC2)c1)c1cc(-c2ccc(C3CC3)cc2)ccn1` [Example 129, N-(3-(4-cyclopropyl-4H-1,2,4-triazol-3-yl)phenyl)-4-(4-cyclopropylphenyl)picolinamide] gave a pIC50 of 7.66. This pIC50 and that of the compound before are within 0.2 log units of each other.

Turning to `O=C(Nc1cccc(-c2nncn2C2CC2)n1)c1cc(-n2cnc(C(F)(F)F)c2)ccn1` [Example 188, N-(6-(4-cyclopropyl-4H-1,2,4-triazol-3-yl)pyridin-2-yl)-4-(4-(trifluoromethyl)-1H-imidazol-1-yl)picolinamide], the pIC50 was 8.22.

`CC(C)n1cnnc1-c1cccc(NC(=O)c2cc(-c3cccnc3)ccn2)c1` [Example 180, N-(3-(4-isopropyl-4H-1,2,4-triazol-3-yl)phenyl)-3,4′-bipyridine-2′-carboxamide] had a pIC50 of 7.57.

Compound `O=C(Nc1cccc(-c2nncn2C2CC2)c1)c1cc(-c2ccc(N3CCNC3=O)cc2)ccn1` [Example 105, N-(3-(4-cyclopropyl-4H-1,2,4-triazol-3-yl)phenyl)-4-(4-(2-oxoimidazolidin-1-yl)phenyl)picolinamide] showed a pIC50 of 7.82.

On to `Cc1cc(C(=O)Nc2cccc(-c3nncn3C3CC3)n2)cc(-n2cnc(C3CC3)c2)c1` [Example 209, 3-(4-cyclopropyl-1H-imidazol-1-yl)-N-(6-(4-cyclopropyl-4H-1,2,4-triazol-3-yl)pyridin-2-yl)-5-methylbenzamide], for which the pIC50 is 8.15.

`O=C(Nc1cccc(-c2nncn2C2CC2)c1)c1cc(-c2cncnc2)ccn1` [Example 24, N-(3-(4-cyclopropyl-4H-1,2,4-triazol-3-yl)phenyl)-4-(pyrimidin-5-yl)picolinamide] had a negative-log IC50 (pIC50) of 7.68.

Regarding `CC(C)c1cn(-c2ccnc(C(=O)Nc3cccc(-c4nncn4C4CC4)n3)c2)cn1` [Example 167, N-(6-(4-cyclopropyl-4H-1,2,4-triazol-3-yl)pyridin-2-yl)-4-(4-isopropyl-1H-imidazol-1-yl)picolinamide], the pIC50 was 8.15.

For the origin of these results see patent publication USRE48711E1, “Apoptosis signal-regulating kinase inhibitors” (Gilead Sciences, Inc., priority 2009, dated 2021).
